Consider three compounds from patent US20240197603A1, “METHODS AND COMPOSITIONS FOR TREATING HYPERPIGMENTATION DISORDERS” (INSERM (INSTITUT NATIONAL DE LA SANTÉ ET DE LA RECHERCHE …, priority 2021, published 2024).

The subject of data set [1] is MNT1 human melanoma cells. The data set is described as follows: Melanin production in MNT1 human melanoma cells. In kind it is cell-based. As for the experimental part:
(§1) Mouse B16F10 and Human 501Mel melanoma cells were cultured in Dulbecco's modified Eagle's medium (DMEM) supplemented with 7% Fetal Bovine Serum and 1% Penicillin/Streptomycin. Human MNT1 melanoma cells were cultured as described (Yasumoto et al., 2004). Normal Human Melanocytes were isolated from foreskin obtained after phimosis surgery. Patient consent was not required because French laws consider tissue left over from postectomy as discarded material. Melanocytes were cultured in MCDB medium as described (Bonet et al., 2017). Cells were tested every 4 weeks for mycobacterial presence. […] Cells were detached with 0.05% Trypsin-EDTA solution (Thermo Scientific, France) and solubilized in NaOH 0.5N. Optical density was measured at 405 nm using melanin standard as a reference. Melanin content was normalized to the protein content.

In data set [2] the target is T1, tyrosinase (Mus musculus, UniProt P11344).
T1 sequence (P11344 19-533): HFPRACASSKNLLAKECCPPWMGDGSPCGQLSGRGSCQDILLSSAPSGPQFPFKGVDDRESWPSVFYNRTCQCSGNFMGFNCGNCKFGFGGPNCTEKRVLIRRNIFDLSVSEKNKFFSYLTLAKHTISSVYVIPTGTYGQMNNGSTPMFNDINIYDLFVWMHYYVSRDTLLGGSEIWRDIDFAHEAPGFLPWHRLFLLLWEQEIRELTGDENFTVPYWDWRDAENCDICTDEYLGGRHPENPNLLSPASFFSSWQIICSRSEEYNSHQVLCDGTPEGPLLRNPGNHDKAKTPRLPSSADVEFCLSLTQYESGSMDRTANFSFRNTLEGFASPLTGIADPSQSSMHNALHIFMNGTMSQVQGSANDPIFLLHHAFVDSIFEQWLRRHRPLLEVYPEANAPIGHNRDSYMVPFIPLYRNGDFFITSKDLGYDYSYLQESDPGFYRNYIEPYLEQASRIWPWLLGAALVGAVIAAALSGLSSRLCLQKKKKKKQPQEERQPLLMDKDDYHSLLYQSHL
Put plainly: DOPA oxidase assay, agent added directly in cell lysates. Also noted: when added directly in cell lysates during the DOPA oxidase assay; endogenous in cells; B16F10 by context). The note with it: during the DOPA oxidase assay. The class given is biochemical. As for the experimental part:
(§2) Proteins were resuspended in 0.1M Sodium Phosphate pH 6.8, supplemented with 5 mM L-DOPA. After incubation for 1 hour at 37° C., optical density was read at 475 nm.

Data set [3] concerns Phototype VI Reconstructed Human Pigmented Epidermis.
Method: Phototype VI Reconstructed Human Pigmented Epidermis (Sterlab, France) were treated with BCH or vehicle for 7 days. 10 μm cryosections were used to visualize melanin using Fontana-Masson stain kit (Interchim, France). Images were taken with a Nikon microscope and a 20× lens. Melanin content was quantified after solubilization of epidermis in Solvable® solution (PerkinElmer, France), and melanin content was quantified as described above.
Data set [4] relates to normal human melanocytes (NHM). Put plainly: Melanin production in normal human melanocytes. In kind it is cell-based. As to conditions: pigmented normal human melanocytes. As for the experimental part:
as §1

In data set [5] the test system is B16F10 cells. The data set is described as follows: Western blot of protein expression in B16F10 cells. In kind it is cell-based, Mouse. As for the experimental part: Proteins were analyzed by SDS-PAGE and transferred on PVDF membranes (Sigma, France). The antibodies used were as follow: beta-actin (ab8226), MITF (ab12039) and Tyrosinase (ab738) from Abcam, Rab27a (#69295) and HSP90 (#4874) from Cell Signaling Technologies, SLC7A5 (sc-374232) and TYRPI (sc-166857) from Santa Cruz. Signals were detected with horseradish peroxidase conjugated secondary antibodies using ECL detection kit and quantified by digital imaging (Fuji LAS4000).
In general terms: In western blotting, separated proteins are transferred to a membrane and probed.

Data set [6] concerns B16F10 cells. Put plainly: Melanin content in B16F10 cells. The class given is cell-based, Mouse. As for the experimental part:
as §1, with “Cells were transfected with 50 nM siRNAs to SLC7A5, MITF or control siRNAs (ON-TARGETplus, Dharmacon) using HiPerfect transfection reagent (Qiagen, France). When indicated, Forskolin (20 μM) and IBMX (100 μM) were added to induce pigmentation on B16F10 cells. 48 hours later, medium was removed, and cells were used for western blot, quantitative PCR, melanin content analyses, immunofluorescence or brightfield imaging. Cells were detached with” for “Cells were detached with”

For data set [7], the target named is T1, tyrosinase. The data set is described as follows: Tyrosinase (L-DOPA) activity after treatment of B16F10 cells. As to conditions: B16F10 cells treated at 10 mM. Also noted: endogenous in cells; host or cells: B16F10 melanoma cells. In kind it is cell-based. As for the experimental part:
as §2

In data set [8] the test system is B16F10 cells. Put plainly: Cell viability / proliferation of B16F10 cells (CellTiter Aqueous One). In kind it is cell-based, Mouse. As for the experimental part: as §1, with “Cell viability was evaluated using CellTiter Aqueous One Solution Cell Proliferation Assay (Promega,” for “Cells were detached with 0.05% Trypsin-EDTA solution (Thermo Scientific,”, “France)” for “France) and solubilized in NaOH 0.5N. Optical density was measured at 405 nm using melanin standard”, “recommended by” for “a reference. Melanin content was normalized to”, “supplier.” for “protein content.”

For `NC1(C(=O)O)CC2CCC1C2` (stereo not shown) [BCH], the melanin production entry in data set [1] was “significantly decreased melanin production”. Also, the “tyrosinase activity, added directly in cell lysates” value on tyrosinase [2] is “does not inhibit tyrosinase activity”. The “epidermis structure and keratinisation” value in data set [3] is “without affecting epidermis structure or keratinisation”. Also, in data set [3] (treated for 7 days), the “melanin content of reconstructed epidermis” value is reported as “statistically significant decrease in melanin content”; the “pigmentation of reconstructed epidermis (macroscopic, bright field images)” value is recorded as “inhibited pigmentation”; the “pigmented melanocytes in epidermis sections (Fontana Masson staining)” value was “absence of pigmented melanocytes”. In addition, the melanin production entry in data set [4] is listed as “significantly decreased melanin production”. In addition, in the data set with B16F10 cells [5] (Western blot, B16F10 cells), the Slc7a5 expression entry is listed as “did not affect Slc7a5 expression”, the “Tyrosinase or Rab27a expression” value was “not affected consistently” and the Tyrp1 expression result is reported as “dose-dependent increase”. Further, the “conversion of LC3-I to LC3-II (autophagy)” value with B16F10 cells [5] (at 5 and 10 mM) is on record as “induced a conversion of LC3-I to LC3-II”. Besides, the “inhibition of melanin production” value in the data set with B16F10 cells [6] (B16F10 cells, BCH at 5 mM) was determined as 25%. Moreover, in the data set on B16F10 cells [6] (B16F10 cells, BCH at 10 mM), the “inhibition of melanin production” value was 60%. In addition, the “tyrosinase activity after treatment of cells” value on tyrosinase [7] is “did not”.
Turning to `Nc1cc(COc2c(Cl)cc(C[C@H](N)C(=O)O)cc2Cl)c2oc(-c3ccccc3)nc2c1` [JPH203, O-[(5-amino-2-phenyl-7-benzoxazolyl)methyl]-3,5-dichloro-L-tyrosine], the “pigmentation of reconstructed epidermis (macroscopic, bright field images)” value in data set [3] (treated for 7 days) was “strong inhibition of pigmentation”. Further, the cell proliferation entry in the data set on B16F10 cells [8] (JPH203 at 10 and 50 μM) is “did not inhibit cell proliferation”. Besides, the “inhibition of pigmentation (melanin content)” value in the data set on B16F10 cells [6] (B16F10 cells, JPH203 at 10 and 50 μM, FIG. 2) is reported as “efficiently inhibited pigmentation”.
What is called inhibition is the share of the control response that was lost under treatment. A high value points to strong suppression. With `O=c1cc(CO)occ1O` [Kojic Acid], the cell proliferation entry with B16F10 cells [8] (doses of Kojic acid that inhibit melanogenesis) is listed as “did not affect cell proliferation”. Moreover, the inhibition at 1000 µM with B16F10 cells [6] (Mus musculus, B16-F10) is 60%.
